Here are results for nine compounds from publication PMC10472371, “Discovery of E2730, a novel selective uncompetitive GAT1 inhibitor, as a candidate for anti‐seizure medication” (Epilepsia Open, 2023).

Read-outs that look alike come from different tables or passages of the source. Marks after values point to notes of the source that are not given here.

For one series, the system named is corneal kindling mice. As to conditions: cited from earlier work.
For the next series, the target named is T1, hNav1.2 (Homo sapiens, UniProt Q99250).
T1 construct: expressed in transfected cells; host or cells: CHO
Put plainly: Veratridine-induced hNav1.2 activation in CHO cells, membrane potential assay. The format is cell-based. As to conditions: veratridine 50 μM. The method, then: Data represent the mean ± SEM of three independent experiments. Effects of E2730 and desipramine (Sigma-Aldrich, MO) on hNav1.2 activity were evaluated in CHO cells stably expressing hNav1.2 using a fluorescent-based membrane potential assay (Molecular Devices, CA). Activation of hNav1.2 was induced by veratridine (50 μM) and the change of fluorescence (excitation wavelength, 480 nm; emission wavelength, 540 nm) was recorded using Fluorescence Drug Screening System 6000 (Hamamatsu Photonics, Japan).

The target of series [1] is T2, hGABAAR (containing α1, β3, and γ2 subunits) (Homo sapiens, UniProt P14867+P18507+P28472).
T2 construct: expressed in transfected cells; host or cells: HEK-293
Briefly: GABA-induced current in hGABAAR-expressing HEK-293 cells, whole-cell patch-clamp. The class given is cell-based. The method, then: Data represent the mean ± SEM of 3 independent experiments. Control response is GABA (13 μM)-induced current amplitude. […] Cells in voltage clamp were maintained at -80 mV throughout the experiments following the voltage protocol.
(In general: In patch-clamp work, channel activity is measured electrically.)

Series [2] deals with 6 Hz-44 mA psychomotor seizure mice. Briefly: Pharmaco-resistant 6 Hz-44 mA psychomotor seizures in mice. The class given is in vivo, mouse. The method, then:
Psychomotor seizures were stimulated by applying currents (44 mA, 6 Hz, 0.2 millisecond rectangular pulse width, 3‐second duration each) via a corneal electrode (SEN‐7203; Nihon Kohden). E2730 (5–50 mg/kg), levetiracetam (Tokyo Chemical Industry; 20–200 mg/kg), or vehicle was orally administered to ddY mice (male, 5 weeks old; Japan SLC Inc.) 1 hour before electrostimulation. […] Behavioral seizures observed in mice were classified into the following four types: stun, forelimb clonus, twitching of the vibrissae, and Straub‐tail.

In the next series the test system is ddY mice. The conditions noted are these: ref Levy et al.[39]; cited from earlier work.
The test system of a further series is amygdala kindling rats. Briefly: Amygdala kindling in rats. The format is in vivo, rat. From the text:
A tripolar electrode was implanted into the basolateral amygdala of Wistar‐Kyoto rats (male, 7 weeks old; Charles River Laboratories Japan, Japan). After at least 5 days of recovery, the amygdala was stimulated using an electronic stimulator at currents starting at 0.04 mA (50 Hz, 1 millisecond monophasic square‐wave pulses, 1‐second duration each) then increasing by 25% to a 30‐second duration until the after‐discharge threshold (ADT) was attained. ADT was defined as the current at which abnormal electroencephalogram and at least Racine's stage‐1 seizure behavior were observed. In the Racine's stage, seizure severity was classified as: 1, mouth and facial movements; 2, head nodding; 3, forelimb clonus; 4, rearing; 5, rearing and falling. From the next day onwards, electrical stimulation at the previously determined ADT was performed once daily in each rat. The rats showing ≥3 consecutive Racine stage‐5 seizures were deemed epileptic and used for drug evaluation. The pre‐ADT (i.e. baseline) seizure threshold of each rat was established prior to drug administration. After >1 hour following the determination of pre‐ADT seizure threshold, E2730 (5–50 mg/kg), levetiracetam (25 mg/kg), or vehicle was orally administered to the rats. One hour after the administration, the post‐ADT seizure threshold of each rat was ascertained, and the ratios of post‐ADT to pre‐ADT readings were analyzed.

The subject of series [3] is extracellular GABA concentration in mouse hippocampus. Put plainly: Microdialysis: extracellular GABA concentration in mouse hippocampus. The format is in vivo. As to conditions: mouse hippocampus, oral; E2730 10-100 mg/kg, tiagabine 3-30 mg/kg. The method, then:
A guide cannula was implanted in the left hippocampus (2.7 mm posterior, 3.3 mm left, and 1.8 mm below from the bregma) of ddY mice (male, 5 weeks old). After 5–7 days of recovery, a microdialysis probe (Eicom) was inserted into the left hippocampus through the guide cannula. The tip of the microdialysis probe reached 4.8 mm below the bregma. The next day, the probe was connected to a perfusion tube and perfused with Ringer solution (containing 147.0 mM NaCl, 4.7 mM KCl, 0.6 mM MgSO4, 2.5 mM CaCl2, 5.0 mM HEPES, pH 7.4) at a flow rate of 1.5 μL/min. After ≥160 minutes of perfusion, collection of the perfusate (30 μL/20 min/fraction) was initiated, and 12 fractions per animal were collected for 240 minutes. E2730 (10–100 mg/kg), tiagabine (3–30 mg/kg), or vehicle was orally administered 72 minutes after initiating sample collection. Tiagabine was used as a reference ASM of a non‐competitive GAT1 inhibitor. Perfusate was switched from Ringer solution to high‐potassium Ringer solution (51.7 mM NaCl, 100.0 mM KCl, 0.6 mM MgSO4, 2.5 mM CaCl2, 5.0 mM HEPES, pH 7.4) after 127 minutes following the collection. GABA concentration in each sample was measured by a high‐performance liquid chromatography with tandem mass spectrometry method.

T2 sequence (P14867 28-456): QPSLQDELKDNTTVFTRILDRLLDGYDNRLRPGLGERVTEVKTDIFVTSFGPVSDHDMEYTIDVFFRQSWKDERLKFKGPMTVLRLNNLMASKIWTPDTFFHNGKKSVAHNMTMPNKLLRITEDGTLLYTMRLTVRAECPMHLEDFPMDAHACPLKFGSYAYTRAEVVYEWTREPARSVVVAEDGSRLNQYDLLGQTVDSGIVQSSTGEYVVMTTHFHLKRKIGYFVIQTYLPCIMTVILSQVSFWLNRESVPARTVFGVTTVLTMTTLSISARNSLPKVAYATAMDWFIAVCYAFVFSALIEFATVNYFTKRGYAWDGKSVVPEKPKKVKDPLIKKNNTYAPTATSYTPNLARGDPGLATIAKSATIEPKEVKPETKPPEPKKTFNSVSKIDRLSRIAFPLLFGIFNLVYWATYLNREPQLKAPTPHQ
T2 sequence (P28472 26-473): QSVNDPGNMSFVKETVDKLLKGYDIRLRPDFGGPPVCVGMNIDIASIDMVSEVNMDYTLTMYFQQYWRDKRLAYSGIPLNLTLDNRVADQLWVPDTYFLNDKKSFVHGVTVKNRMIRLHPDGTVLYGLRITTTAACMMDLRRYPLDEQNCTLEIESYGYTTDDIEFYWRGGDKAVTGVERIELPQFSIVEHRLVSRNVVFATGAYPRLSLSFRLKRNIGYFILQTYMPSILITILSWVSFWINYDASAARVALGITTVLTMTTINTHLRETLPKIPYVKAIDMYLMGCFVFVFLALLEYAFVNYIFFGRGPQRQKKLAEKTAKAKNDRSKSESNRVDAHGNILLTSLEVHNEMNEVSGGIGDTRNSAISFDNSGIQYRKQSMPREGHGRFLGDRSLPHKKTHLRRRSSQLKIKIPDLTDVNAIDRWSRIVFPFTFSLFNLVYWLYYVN
T2 sequence (P18507 40-475): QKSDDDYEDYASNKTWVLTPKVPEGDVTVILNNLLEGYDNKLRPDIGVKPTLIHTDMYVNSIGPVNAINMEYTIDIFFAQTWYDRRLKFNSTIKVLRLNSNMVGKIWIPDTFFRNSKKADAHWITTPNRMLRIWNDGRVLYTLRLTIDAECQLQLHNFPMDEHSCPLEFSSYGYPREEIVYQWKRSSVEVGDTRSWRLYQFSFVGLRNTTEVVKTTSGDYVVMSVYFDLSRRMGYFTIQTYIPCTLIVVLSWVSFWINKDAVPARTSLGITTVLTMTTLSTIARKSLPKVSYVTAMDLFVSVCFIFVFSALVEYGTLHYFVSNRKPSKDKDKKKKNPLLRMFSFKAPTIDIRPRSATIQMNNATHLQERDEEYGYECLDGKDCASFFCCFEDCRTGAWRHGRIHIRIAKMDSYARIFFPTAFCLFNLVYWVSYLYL
T1 sequence (Q99250 whole entry): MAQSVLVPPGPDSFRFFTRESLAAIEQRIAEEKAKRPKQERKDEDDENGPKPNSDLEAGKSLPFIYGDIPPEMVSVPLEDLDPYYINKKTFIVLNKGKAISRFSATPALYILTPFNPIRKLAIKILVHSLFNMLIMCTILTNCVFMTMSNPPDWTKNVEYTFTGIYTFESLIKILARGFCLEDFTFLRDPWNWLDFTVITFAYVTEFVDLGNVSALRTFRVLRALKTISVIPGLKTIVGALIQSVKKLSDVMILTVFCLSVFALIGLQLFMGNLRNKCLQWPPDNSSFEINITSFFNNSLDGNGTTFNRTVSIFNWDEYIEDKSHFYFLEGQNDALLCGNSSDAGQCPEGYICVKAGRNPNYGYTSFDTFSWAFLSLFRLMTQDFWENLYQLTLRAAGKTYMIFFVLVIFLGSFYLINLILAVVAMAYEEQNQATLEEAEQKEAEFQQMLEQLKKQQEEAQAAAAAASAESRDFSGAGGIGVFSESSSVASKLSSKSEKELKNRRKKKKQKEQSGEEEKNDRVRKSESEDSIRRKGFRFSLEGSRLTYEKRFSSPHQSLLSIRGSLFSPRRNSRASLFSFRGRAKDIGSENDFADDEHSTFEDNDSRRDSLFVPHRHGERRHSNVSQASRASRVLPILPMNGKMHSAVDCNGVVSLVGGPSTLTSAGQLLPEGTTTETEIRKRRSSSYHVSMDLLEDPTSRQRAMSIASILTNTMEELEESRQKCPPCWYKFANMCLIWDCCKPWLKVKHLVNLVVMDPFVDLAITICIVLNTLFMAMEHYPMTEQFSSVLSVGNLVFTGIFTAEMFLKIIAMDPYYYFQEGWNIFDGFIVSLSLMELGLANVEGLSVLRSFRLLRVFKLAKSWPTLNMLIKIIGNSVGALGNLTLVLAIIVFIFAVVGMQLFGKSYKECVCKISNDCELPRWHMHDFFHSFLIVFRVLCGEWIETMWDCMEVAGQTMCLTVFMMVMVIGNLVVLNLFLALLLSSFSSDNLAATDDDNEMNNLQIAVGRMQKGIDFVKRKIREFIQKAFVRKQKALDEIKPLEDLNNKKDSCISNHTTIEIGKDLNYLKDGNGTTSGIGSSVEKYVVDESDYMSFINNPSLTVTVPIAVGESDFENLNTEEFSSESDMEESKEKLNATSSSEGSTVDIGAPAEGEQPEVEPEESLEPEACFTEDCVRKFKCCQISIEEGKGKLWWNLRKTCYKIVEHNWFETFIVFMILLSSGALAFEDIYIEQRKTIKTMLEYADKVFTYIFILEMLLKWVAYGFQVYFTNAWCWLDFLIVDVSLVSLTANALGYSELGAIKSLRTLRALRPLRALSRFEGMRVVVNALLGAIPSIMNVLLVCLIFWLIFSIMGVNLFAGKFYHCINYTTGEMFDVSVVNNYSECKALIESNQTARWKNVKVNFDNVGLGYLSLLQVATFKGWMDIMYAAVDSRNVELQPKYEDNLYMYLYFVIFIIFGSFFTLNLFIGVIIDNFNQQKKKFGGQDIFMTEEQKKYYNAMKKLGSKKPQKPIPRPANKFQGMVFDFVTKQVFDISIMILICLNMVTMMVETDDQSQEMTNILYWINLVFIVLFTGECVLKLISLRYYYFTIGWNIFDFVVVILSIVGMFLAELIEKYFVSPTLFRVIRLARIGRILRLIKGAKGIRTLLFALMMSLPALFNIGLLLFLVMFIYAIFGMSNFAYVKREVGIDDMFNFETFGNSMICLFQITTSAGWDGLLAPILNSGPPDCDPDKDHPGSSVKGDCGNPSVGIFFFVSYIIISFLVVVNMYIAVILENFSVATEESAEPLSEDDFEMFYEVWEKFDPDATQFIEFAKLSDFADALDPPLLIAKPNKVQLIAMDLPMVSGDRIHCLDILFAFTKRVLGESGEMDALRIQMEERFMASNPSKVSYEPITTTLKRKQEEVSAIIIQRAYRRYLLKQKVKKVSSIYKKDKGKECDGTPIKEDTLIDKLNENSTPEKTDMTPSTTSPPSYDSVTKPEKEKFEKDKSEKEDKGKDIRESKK

As for `NC(=O)N1c2ccccc2C=Cc2ccccc21` [Carbamazepine, carbamazepine], the “ED50 (95% CI) in corneal kindling mice” value in the series with corneal kindling mice (ref Matagne et al.[40]) is given as 9 ^c (5, 11) mg/kg.

Take `O=C1CN=C(c2ccccc2Cl)c2cc([N+](=O)[O-])ccc2N1` [Clonazepam, clonazepam]: in the series on corneal kindling mice (ref Matagne et al.[40]), the “ED50 (95% CI) in corneal kindling mice” value was 0.04 ^c (0.02, 0.07) mg/kg.

With `CNCCCN1c2ccccc2CCc2ccccc21` [Desipramine, desipramine, reference compound], half-maximal inhibition against hNav1.2 (IC50) was put at 4.9 µM.

Regarding `CN1C(=O)CN=C(c2ccccc2)c2cc(Cl)ccc21` [Diazepam, diazepam], in series [1] (HEK293, read-out: Emax, potentiation of GABA-induced current amplitude), the Emax – broadly, the greatest response seen or fitted, relative to the assay's reference – at 1 µM came out at 218%.

`CCC1(C)CC(=O)NC1=O` (stereo not shown) [Ethosuximide, ethosuximide]: the “ED50 (95% CI) in corneal kindling mice” value in the series with corneal kindling mice (ref Matagne et al.[40]) is reported as >254 ^c mg/kg.

As to `CC[C@@H](C(N)=O)N1CCCC1=O` [Levetiracetam, levetiracetam], the ED50 (commonly the dose that gives a 50% effect, or the effect in half of the subjects) in series [2] (Mus musculus, oral, 1 hour before electrostimulation, ddY mice, read-out: ED50 (95% CI), 6 Hz-44 mA psychomotor seizures) is above 200 mg/kg. In addition, the “anti-seizure efficacy in 6 Hz-44 mA psychomotor seizures” value in series [2] (levetiracetam 20-200 mg/kg oral) is on record as “did not show ≥50% efficacy”. Moreover, the “TD50 (95% CI) in mouse rotarod test” value in the series on ddY mice is recorded as >500 ^b mg/kg. In addition, the post-ADT/pre-ADT ratio in the series with amygdala kindling rats (levetiracetam 25 mg/kg oral) worked out at 127%. Also, the “Minimum effective dose, amygdala kindling (rat)” value in the series on amygdala kindling rats (oral, footnote a: minimum effective dose) is on record as 25 mg/kg. The “ED50 (95% CI) in corneal kindling mice” value with corneal kindling mice (ref Matagne et al.[40]) was 16 ^c (6, 43) mg/kg.

Regarding `CCC1(c2ccccc2)C(=O)NC(=O)NC1=O` [Phenobarbital, phenobarbital], the “ED50 (95% CI) in corneal kindling mice” value with corneal kindling mice (ref Matagne et al.[40]) is 11 ^c (7, 15) mg/kg.

Regarding `Cc1ccsc1C(=CCCN1CCC[C@@H](C(=O)O)C1)c1sccc1C` [Tiagabine, tiagabine, reference compound], the EC50 (usually the concentration that produces a half-maximal response) in series [1] (GABA 13 μM, -80 mV, read-out: EC50, potentiation of GABA-induced current amplitude) was 4.8 µM. Moreover, in series [1] (HEK293, at 100 μM, control response GABA (13 μM)-induced current, read-out: Emax, potentiation of GABA-induced current amplitude), the Emax at 100 µM was found to be 153%. Further, in series [3], the “effect on basal extracellular GABA concentration” value is recorded as “significantly increased” and the “effect on high-potassium-induced extracellular GABA concentration” value is “significantly increased”. In addition, in the series on ddY mice, the “TD50 (95% CI) in mouse rotarod test” value is reported as 1.29 ^b mg/kg. The “ED50 (95% CI) in corneal kindling mice” value in the series on corneal kindling mice (ref Madsen et al.[38]) is 0.51 ^a mg/kg.

As to `CCCC(CCC)C(=O)O` [Valproate, valproate], in the series on corneal kindling mice (ref Matagne et al.[40]), the “ED50 (95% CI) in corneal kindling mice” value was 110 ^c (83, 143) mg/kg.
